In patent US9156845B2, “4-(substituted amino)-7H-pyrrolo[2,3-d] pyrimidines as LRRK2 inhibitors” (Pfizer Inc., priority 2012, dated 2015):
Where two headings read alike, the source gives them in different places.

Key:
Experiment in all cases: ActivX kinase probe assay (human PBMC)
Assay type in all cases: binding
ABL, ARG = test system: ABL, ARG
GCK = GCK (Homo sapiens (Human), UniProt Q12851); conditions: read-out: percent inhibition
IRE1 = IRE1 (Homo sapiens (Human), UniProt O75460); conditions: read-out: percent inhibition
FER = FER (Homo sapiens (Human), UniProt P16591); conditions: read-out: percent inhibition
CDK11, CDK8 = test system: CDK11, CDK8
NEK7 = NEK7 (Homo sapiens (Human), UniProt Q8TDX7); conditions: read-out: percent inhibition
NuaK2 = NuaK2 (Homo sapiens (Human), UniProt Q9H093); conditions: read-out: percent inhibition
CDC2 = CDC2 (Homo sapiens (Human), UniProt P06493); conditions: read-out: percent inhibition
LRRK2 = LRRK2 (Homo sapiens (Human), UniProt Q5S007); conditions: read-out: percent inhibition
SLK = SLK (Homo sapiens (Human), UniProt Q9H2G2); conditions: read-out: percent inhibition
smMLCK = smMLCK (Homo sapiens (Human), UniProt Q15746); conditions: read-out: percent inhibition
KSR1, KSR2 = test system: KSR1, KSR2
FYN, SRC, YES = test system: FYN, SRC, YES
NEK1 = NEK1 (Homo sapiens (Human), UniProt Q96PY6); conditions: read-out: percent inhibition
PRPK = PRPK (Homo sapiens (Human), UniProt Q96S44); conditions: read-out: percent inhibition
Description: Certain of the compounds of the present invention were assessed for kinase selectivity using a commercially available ActiveX targeted kinase probe in which the tissue employed was human peripheral blood mononuclear cells (PBMC). The test compounds were provided to ActivX Biosciences, Inc., 11025 North Torrey Pines Road, Suite 120; LaJolla, Calif., USA 92037. The compounds were run in the ActivX proprietary kinase assay and results were obtained at compound test concentrations of 1 μM (columns 2, 4 and 6) and 0.1 μM (columns 3, 5 and 7). The results as percent inhibition obtained for the compounds of Examples 1, 4 and 217 are provided below in Table 3.

ZAK = ZAK (Homo sapiens (Human), UniProt Q9NYL2); conditions: read-out: percent inhibition
PIK3CD = PIK3CD (Homo sapiens (Human), UniProt O00329); conditions: read-out: percent inhibition
PIK3CB = PIK3CB (Homo sapiens (Human), UniProt P42338); conditions: read-out: percent inhibition
MAP2K6 = MAP2K6 (Homo sapiens (Human), UniProt P52564); conditions: read-out: percent inhibition
PIP5K3 = PIP5K3 (Homo sapiens (Human), UniProt Q9Y2I7); conditions: read-out: percent inhibition
NEK6, NEK7 = test system: NEK6, NEK7
CHK2 = CHK2 (Homo sapiens (Human), UniProt O96017); conditions: read-out: percent inhibition
DGKA = DGKA (Homo sapiens (Human), UniProt P23743); conditions: read-out: percent inhibition
PIK3CG = PIK3CG (Homo sapiens (Human), UniProt P48736); conditions: read-out: percent inhibition
Erk5 = Erk5 (Homo sapiens (Human), UniProt Q13164); conditions: read-out: percent inhibition
FGR = FGR (Homo sapiens (Human), UniProt P09769); conditions: read-out: percent inhibition
MST1 = MST1 (Homo sapiens (Human), UniProt Q13043); conditions: read-out: percent inhibition
MST1, MST2 = test system: MST1, MST2
MST2 = MST2 (Homo sapiens (Human), UniProt Q13188); conditions: read-out: percent inhibition

Sequence of NEK7 (Q8TDX7 whole entry): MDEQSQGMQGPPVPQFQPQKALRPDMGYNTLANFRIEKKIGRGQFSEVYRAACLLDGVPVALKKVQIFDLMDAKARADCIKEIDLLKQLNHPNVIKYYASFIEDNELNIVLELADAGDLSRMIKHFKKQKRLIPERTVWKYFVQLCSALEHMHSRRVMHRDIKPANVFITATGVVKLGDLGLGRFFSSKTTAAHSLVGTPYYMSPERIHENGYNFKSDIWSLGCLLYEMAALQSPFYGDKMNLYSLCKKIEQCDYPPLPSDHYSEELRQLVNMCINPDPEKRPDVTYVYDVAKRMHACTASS
Sequence of SLK (Q9H2G2 whole entry): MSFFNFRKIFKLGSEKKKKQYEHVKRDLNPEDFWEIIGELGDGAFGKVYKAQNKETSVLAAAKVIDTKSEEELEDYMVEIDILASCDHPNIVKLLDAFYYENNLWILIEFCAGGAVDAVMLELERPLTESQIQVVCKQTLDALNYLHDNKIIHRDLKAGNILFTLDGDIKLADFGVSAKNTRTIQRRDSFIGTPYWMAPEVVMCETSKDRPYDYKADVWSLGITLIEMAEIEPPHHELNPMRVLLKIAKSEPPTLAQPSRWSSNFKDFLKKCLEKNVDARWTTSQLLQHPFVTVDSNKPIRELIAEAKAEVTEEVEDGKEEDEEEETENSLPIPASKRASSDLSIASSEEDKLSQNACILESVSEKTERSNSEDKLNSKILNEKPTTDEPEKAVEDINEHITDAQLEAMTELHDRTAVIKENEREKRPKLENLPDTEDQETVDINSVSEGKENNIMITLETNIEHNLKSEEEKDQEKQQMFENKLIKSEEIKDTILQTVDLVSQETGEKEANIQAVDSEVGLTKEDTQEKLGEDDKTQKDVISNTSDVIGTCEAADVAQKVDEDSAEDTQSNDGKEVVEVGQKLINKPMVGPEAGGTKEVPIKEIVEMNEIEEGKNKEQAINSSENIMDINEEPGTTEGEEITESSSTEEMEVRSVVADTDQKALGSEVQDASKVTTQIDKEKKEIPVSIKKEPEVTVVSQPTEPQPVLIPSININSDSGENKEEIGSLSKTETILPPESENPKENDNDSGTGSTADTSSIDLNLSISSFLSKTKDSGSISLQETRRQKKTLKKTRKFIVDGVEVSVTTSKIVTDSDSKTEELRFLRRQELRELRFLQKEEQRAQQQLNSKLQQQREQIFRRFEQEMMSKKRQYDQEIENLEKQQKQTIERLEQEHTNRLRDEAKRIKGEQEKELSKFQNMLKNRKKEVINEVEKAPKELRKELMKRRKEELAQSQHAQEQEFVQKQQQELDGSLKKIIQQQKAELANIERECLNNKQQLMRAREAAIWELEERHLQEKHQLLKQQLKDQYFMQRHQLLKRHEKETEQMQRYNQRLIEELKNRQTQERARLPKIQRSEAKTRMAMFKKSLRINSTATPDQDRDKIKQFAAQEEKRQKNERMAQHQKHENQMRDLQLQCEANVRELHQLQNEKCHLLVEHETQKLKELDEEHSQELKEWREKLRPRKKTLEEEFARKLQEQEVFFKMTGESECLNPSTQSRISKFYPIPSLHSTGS
Sequence of LRRK2 (Q5S007 whole entry): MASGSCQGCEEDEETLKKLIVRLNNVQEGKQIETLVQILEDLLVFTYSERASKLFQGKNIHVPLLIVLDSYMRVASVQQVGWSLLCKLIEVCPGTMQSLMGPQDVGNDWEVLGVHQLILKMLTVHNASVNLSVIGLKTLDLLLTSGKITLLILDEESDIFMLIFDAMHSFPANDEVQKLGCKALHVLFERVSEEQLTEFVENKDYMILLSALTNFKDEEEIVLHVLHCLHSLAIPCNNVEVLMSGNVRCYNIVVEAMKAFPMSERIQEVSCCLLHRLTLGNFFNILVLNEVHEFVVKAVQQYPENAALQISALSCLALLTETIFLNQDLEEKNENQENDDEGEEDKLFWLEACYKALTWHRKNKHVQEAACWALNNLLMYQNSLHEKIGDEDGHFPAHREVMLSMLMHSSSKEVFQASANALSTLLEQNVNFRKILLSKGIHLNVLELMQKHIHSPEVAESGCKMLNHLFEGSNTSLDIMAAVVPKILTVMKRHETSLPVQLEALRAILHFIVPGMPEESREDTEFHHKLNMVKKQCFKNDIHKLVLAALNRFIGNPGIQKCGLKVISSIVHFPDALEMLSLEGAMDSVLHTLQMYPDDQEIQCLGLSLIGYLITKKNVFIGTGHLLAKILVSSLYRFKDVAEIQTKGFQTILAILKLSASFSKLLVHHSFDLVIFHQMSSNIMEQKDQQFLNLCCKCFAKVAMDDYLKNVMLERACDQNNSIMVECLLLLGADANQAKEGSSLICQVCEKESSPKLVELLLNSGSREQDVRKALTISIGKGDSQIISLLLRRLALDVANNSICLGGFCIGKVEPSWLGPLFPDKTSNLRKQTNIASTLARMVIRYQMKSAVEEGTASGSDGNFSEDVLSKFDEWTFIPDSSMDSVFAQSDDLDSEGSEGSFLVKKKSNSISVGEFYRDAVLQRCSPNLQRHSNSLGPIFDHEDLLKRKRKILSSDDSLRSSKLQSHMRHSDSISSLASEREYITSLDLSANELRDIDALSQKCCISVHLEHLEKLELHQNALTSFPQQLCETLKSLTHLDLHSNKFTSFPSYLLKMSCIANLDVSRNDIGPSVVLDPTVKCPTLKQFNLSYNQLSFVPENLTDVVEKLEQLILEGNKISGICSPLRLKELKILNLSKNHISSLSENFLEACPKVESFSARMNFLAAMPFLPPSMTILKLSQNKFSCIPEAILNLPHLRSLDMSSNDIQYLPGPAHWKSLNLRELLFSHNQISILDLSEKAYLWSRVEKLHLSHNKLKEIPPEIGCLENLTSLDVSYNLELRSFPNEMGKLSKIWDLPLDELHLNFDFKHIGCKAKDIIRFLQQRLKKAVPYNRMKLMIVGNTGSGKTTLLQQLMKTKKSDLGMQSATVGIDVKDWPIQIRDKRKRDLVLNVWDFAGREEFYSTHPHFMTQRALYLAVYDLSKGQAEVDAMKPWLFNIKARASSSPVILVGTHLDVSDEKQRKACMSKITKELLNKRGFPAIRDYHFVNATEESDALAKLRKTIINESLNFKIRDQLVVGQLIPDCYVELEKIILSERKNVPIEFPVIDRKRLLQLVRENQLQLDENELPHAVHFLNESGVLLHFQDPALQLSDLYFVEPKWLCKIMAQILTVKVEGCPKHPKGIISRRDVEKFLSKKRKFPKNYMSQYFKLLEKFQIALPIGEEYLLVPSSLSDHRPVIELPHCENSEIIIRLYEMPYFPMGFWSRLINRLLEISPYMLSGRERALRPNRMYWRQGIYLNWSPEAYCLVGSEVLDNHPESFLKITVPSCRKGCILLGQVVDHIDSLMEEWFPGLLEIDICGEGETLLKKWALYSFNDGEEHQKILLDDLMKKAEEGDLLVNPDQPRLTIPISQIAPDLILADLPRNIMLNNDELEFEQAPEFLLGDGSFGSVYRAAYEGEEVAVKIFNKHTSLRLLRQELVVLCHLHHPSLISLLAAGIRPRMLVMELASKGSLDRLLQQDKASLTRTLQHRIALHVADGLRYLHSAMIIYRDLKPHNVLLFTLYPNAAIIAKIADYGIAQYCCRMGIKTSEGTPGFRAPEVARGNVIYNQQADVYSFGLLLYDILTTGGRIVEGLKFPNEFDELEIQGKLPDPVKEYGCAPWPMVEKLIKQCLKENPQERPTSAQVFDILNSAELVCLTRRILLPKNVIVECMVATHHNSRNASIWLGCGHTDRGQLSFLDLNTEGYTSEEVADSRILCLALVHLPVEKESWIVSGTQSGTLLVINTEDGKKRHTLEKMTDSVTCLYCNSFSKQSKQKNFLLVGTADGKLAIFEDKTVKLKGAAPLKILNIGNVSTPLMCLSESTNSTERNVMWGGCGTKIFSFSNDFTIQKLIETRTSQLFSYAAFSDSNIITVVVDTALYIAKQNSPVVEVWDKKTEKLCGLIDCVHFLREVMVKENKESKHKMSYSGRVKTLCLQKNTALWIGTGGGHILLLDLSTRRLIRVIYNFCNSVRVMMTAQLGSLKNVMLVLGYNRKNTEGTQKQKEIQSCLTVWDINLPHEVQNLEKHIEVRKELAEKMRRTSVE
Sequence of NuaK2 (Q9H093 whole entry): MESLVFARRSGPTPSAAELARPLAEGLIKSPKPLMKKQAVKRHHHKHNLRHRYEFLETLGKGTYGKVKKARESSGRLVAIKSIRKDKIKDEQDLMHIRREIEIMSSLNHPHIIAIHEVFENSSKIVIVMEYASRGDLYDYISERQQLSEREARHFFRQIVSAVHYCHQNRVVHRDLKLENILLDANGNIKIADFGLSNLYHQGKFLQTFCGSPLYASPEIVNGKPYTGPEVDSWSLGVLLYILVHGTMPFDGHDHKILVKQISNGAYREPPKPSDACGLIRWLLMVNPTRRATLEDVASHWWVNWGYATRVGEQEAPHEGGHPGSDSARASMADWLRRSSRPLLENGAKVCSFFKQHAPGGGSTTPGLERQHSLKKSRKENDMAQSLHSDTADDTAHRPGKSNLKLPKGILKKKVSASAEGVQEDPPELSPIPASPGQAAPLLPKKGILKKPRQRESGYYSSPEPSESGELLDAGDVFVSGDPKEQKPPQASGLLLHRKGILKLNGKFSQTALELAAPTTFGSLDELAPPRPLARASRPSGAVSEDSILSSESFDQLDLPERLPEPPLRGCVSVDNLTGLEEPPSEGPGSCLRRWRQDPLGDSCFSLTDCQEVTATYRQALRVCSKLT
Sequence of MAP2K6 (P52564 whole entry): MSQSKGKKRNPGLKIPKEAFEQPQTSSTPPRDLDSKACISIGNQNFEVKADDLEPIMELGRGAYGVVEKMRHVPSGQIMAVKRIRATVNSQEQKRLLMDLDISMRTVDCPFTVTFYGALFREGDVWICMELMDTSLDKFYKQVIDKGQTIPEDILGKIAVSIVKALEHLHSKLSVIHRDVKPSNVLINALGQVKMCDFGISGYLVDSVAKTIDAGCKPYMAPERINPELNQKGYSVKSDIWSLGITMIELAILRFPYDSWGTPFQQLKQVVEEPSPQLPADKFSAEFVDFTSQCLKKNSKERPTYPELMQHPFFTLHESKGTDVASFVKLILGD

In the case of `N#Cc1cccc(-c2c[nH]c3ncnc(N4CCOCC4)c23)c1` [Example 4, 3-[4-(Morpholin-4-yl)-7H-pyrrolo[2,3-d]pyrimidin-5-yl]benzonitrile], the percent inhibition (ABL, ARG; 0.1 μM) is reported as −29.4%, the percent inhibition (ABL, ARG; 1 μM) is reported as −0.9% and the inhibition at 0.1 µM (GCK) is reported as 3.6%. It also gave an inhibition at 1 µM (GCK) of 31.2%, an inhibition at 0.1 µM (IRE1) of -16% and an inhibition at 1 µM (IRE1) of 1.8%. For the same molecule, the inhibition at 0.1 µM (FER) was -26.4%, the inhibition at 1 µM (FER) was 1.6% and the percent inhibition (CDK11, CDK8; 0.1 μM) was 5%. The percent inhibition (CDK11, CDK8; 1 μM) was 36%, the inhibition at 0.1 µM (NEK7) was 2.2% and the inhibition at 1 µM (NEK7) was 7.3%. For the same molecule, the inhibition at 0.1 µM (NuaK2) was -11.9%, the inhibition at 1 µM (NuaK2) was 18.1% and the inhibition at 0.1 µM (CDC2) was -6.7%. The inhibition at 1 µM (CDC2) was 12.9%, the inhibition at 0.1 µM (LRRK2) was 79.9% and the inhibition at 1 µM (LRRK2; 1 μM) was 94.1%. The inhibition at 0.1 µM (SLK) was 10.5%, the inhibition at 1 µM (SLK) was 60.7% and the inhibition at 0.1 µM (smMLCK) was -21.6%. For the same molecule, the inhibition at 1 µM (smMLCK) was 16.2%, the percent inhibition (KSR1, KSR2; 0.1 μM) was −8.7% and the percent inhibition (KSR1, KSR2; 1 μM) was 11.7%. For the same molecule, the percent inhibition (FYN, SRC, YES; 0.1 μM) was −22.8%, the percent inhibition (FYN, SRC, YES; 1 μM) was −8.8% and the inhibition at 0.1 µM (NEK1) was -8.9%. For the same molecule, the inhibition at 1 µM (NEK1) was -1.9%, the inhibition at 0.1 µM (PRPK) was 3% and the inhibition at 1 µM (PRPK) was -3.7%. For the same molecule, the inhibition at 0.1 µM (ZAK) was -20.5%, the inhibition at 1 µM (ZAK) was -42.2% and the inhibition at 0.1 µM (PIK3CD) was -14%. It also gave an inhibition at 1 µM (PIK3CD) of -12.4%, an inhibition at 0.1 µM (PIK3CB) of 0.5% and an inhibition at 1 µM (PIK3CB) of -2.5%. It also gave an inhibition at 0.1 µM (MAP2K6) of -15.1%, an inhibition at 1 µM (MAP2K6) of 13.5% and an inhibition at 0.1 µM (PIP5K3) of -11.2%. For the same molecule, the inhibition at 1 µM (PIP5K3) was 21.6%, the percent inhibition (NEK6, NEK7; 0.1 μM) was −5.3% and the percent inhibition (NEK6, NEK7; 1 μM) was −4.9%. The inhibition at 0.1 µM (CHK2) was -6.8%, the inhibition at 1 µM (CHK2) was 2.2% and the inhibition at 0.1 µM (DGKA) was -15.9%. For the same molecule, the inhibition at 1 µM (DGKA) was -8.7%, the inhibition at 0.1 µM (PIK3CG) was -20.4% and the inhibition at 1 µM (PIK3CG) was -5.6%. It also gave an inhibition at 0.1 µM (Erk5) of -5%, an inhibition at 1 µM (Erk5) of -6.3% and an inhibition at 0.1 µM (FGR) of -10.8%. It also gave an inhibition at 1 µM (FGR) of 1.7%.
Molecule `Cn1cc(-c2c[nH]c3ncnc(N4CCOCC4)c23)cc1C#N` [Example 217, 1-methyl-4-[4-(morpholin-4-yl)-7H-pyrrolo[2,3-d]pyrimidin-5-yl]-1H-pyrrole-2-carbonitrile] has a percent inhibition (ABL, ARG; 0.1 μM) of 4.6%, a percent inhibition (ABL, ARG; 1 μM) of −1.6% and an inhibition at 0.1 µM (GCK; GCK, 0.1 μM) of -5.2%. The inhibition at 1 µM (GCK; GCK, 1 μM) was 27.2%, the inhibition at 0.1 µM (IRE1; IRE1, 0.1 μM) was 3.2% and the inhibition at 1 µM (IRE1; IRE1, 1 μM) was -19.5%. For the same molecule, the inhibition at 0.1 µM (FER; FER, 0.1 μM) was 5.2%, the inhibition at 1 µM (FER; FER, 1 μM) was 16.3% and the percent inhibition (CDK11, CDK8; 0.1 μM) was −5.6%. It also gave a percent inhibition (CDK11, CDK8; 1 μM) of −5.2%, an inhibition at 0.1 µM (NEK7; NEK7, 0.1 μM) of -9% and an inhibition at 1 µM (NEK7; NEK7, 1 μM) of -2.3%. The inhibition at 0.1 µM (MST1; 0.1 μM) was 25.6%, the inhibition at 1 µM (MST1; 1 μM) was 73.5% and the inhibition at 0.1 µM (NuaK2; NuaK2, 0.1 μM) was 1.3%. It also gave an inhibition at 1 µM (NuaK2; NuaK2, 1 μM) of 24.9%, a percent inhibition (MST1, MST2; 0.1 μM) of 21.9% and a percent inhibition (MST1, MST2; 1 μM) of 72.6%. For the same molecule, the inhibition at 0.1 µM (CDC2; CDC2, 0.1 μM) was 28.7%, the inhibition at 1 µM (CDC2; CDC2, 1 μM) was 24.4% and the inhibition at 0.1 µM (LRRK2) was 88.4%. It also gave an inhibition at 0.1 µM (SLK; SLK, 0.1 μM) of 22.5%, an inhibition at 1 µM (SLK; SLK, 1 μM) of 39.1% and an inhibition at 0.1 µM (smMLCK; smMLCK, 0.1 μM) of 1.7%. It also gave an inhibition at 1 µM (smMLCK; smMLCK, 1 μM) of 3.5%, a percent inhibition (KSR1, KSR2; 0.1 μM) of −6.2% and a percent inhibition (KSR1, KSR2; 1 μM) of −6.8%. The percent inhibition (FYN, SRC, YES; 0.1 μM) was 18.4%, the percent inhibition (FYN, SRC, YES; 1 μM) was −1.4% and the inhibition at 0.1 µM (NEK1; NEK1, 0.1 μM) was 4.8%. For the same molecule, the inhibition at 1 µM (NEK1; NEK1, 1 μM) was -5.1%, the inhibition at 0.1 µM (PRPK) was 2.6% and the inhibition at 1 µM (PRPK) was 12.5%. It also gave an inhibition at 0.1 µM (ZAK; ZAK, 0.1 μM) of -2.9%, an inhibition at 1 µM (ZAK; ZAK, 1 μM) of -1.2% and an inhibition at 0.1 µM (PIK3CD; PIK3CD, 0.1 μM) of -0.4%. It also gave an inhibition at 1 µM (PIK3CD; PIK3CD, 1 μM) of 10%, an inhibition at 0.1 µM (PIK3CB; PIK3CB, 0.1 μM) of -5.3% and an inhibition at 1 µM (PIK3CB; PIK3CB, 1 μM) of -29.7%. The inhibition at 0.1 µM (MST2; 0.1 μM) was 34.9%, the inhibition at 1 µM (MST2; 1 μM) was 83.2% and the inhibition at 0.1 µM (MAP2K6; MAP2K6, 0.1 μM) was 11.3%. The inhibition at 1 µM (MAP2K6; MAP2K6, 1 μM) was -0.1%, the inhibition at 0.1 µM (PIP5K3; PIP5K3, 0.1 μM) was 16% and the inhibition at 1 µM (PIP5K3; PIP5K3, 1 μM) was 2.5%. For the same molecule, the percent inhibition (NEK6, NEK7; 0.1 μM) was −2.9%, the percent inhibition (NEK6, NEK7; 1 μM) was 6.4% and the inhibition at 0.1 µM (CHK2; CHK2, 0.1 μM) was 8.6%. It also gave an inhibition at 1 µM (CHK2; CHK2, 1 μM) of 6.4%, an inhibition at 0.1 µM (DGKA; DGKA, 0.1 μM) of -2.8% and an inhibition at 1 µM (DGKA; DGKA, 1 μM) of 4.7%. The inhibition at 0.1 µM (PIK3CG; PIK3CG, 0.1 μM) was -3.4%, the inhibition at 1 µM (PIK3CG; PIK3CG, 1 μM) was -22% and the inhibition at 0.1 µM (Erk5; Erk5, 0.1 μM) was -2.6%. For the same molecule, the inhibition at 1 µM (Erk5; Erk5, 1 μM) was -5.4%, the inhibition at 0.1 µM (FGR; FGR, 0.1 μM) was -1.2% and the inhibition at 1 µM (FGR; FGR, 1 μM) was -0.5%.
